Source: US10556865B2, “Synergistic herbicidal composition containing certain pyridine or pyrimidine carboxylic acids and certain cereal and rice herbicides” (Dow AgroSciences, LLC, priority 2007, dated 2020)
“And” between values parts separate entries of the source, which are not always exact repeats. Equal entries are not always repeated.

Experiments:
Assay in all cases: Postemergence herbicidal activity of mixtures in cereal crops (greenhouse, visual injury)
Format in all cases: in vivo
[1] = tested on: lady's-thumb (Polygonum persicaria L; POLPE)
Outline: (§1)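 Injury rated visually on a 0–100% scale 20–22 days after treatment, against controls sprayed with solvent blank. Treatments were applied by track sprayer at 187 L/ha to 2nd–3rd leaf plants; compound A or B salts/esters were tested alone or mixed with another cereal herbicide. Colby's equation gave expected mixture responses.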

[2] = tested on: Italian ryegrass (Lolium multiflorum L; LOLMU); conditions: for LOLMU: Table 13
Outline: as §1

[3] = tested on: wild mustard (Sinapis arvensis L; SINAR)
Outline: as §1

[4] = tested on: downy brome (Bromus tectorum L; BROTE)
Outline: as §1

[5] = tested on: annual bluegrass (Poa annua L; POAAN)
Outline: as §1

[6] = tested on: kochia (Kochia scoparia L; KCHSC)
Outline: as §1

Structure (SMILES): COC(=O)c1nc(-c2ccc(Cl)c(OC)c2F)cc(N)c1Cl [Compound A Methyl, 4-amino-3-chloro-6-(4-chloro-2-fluoro-3-methoxyphenyl)pyridine-2-carboxylic acid methyl ester]
- POLPE Ob ([1]; 8.75 g/ha): 50%
- POLPE Ob ([1]; 17.5 g/ha): 50%
- POLPE Ob ([1]; 35 g/ha): 65%
- POLPE Ob ([1]; 70 g/ha): 70%
- LOLMU Ob ([2]; 35 g/ha, Table 10): 3%
- LOLMU Ob ([2]; 70 g/ha, Table 10): 20%
- LOLMU Ob ([2]; 140 g/ha, Table 10): 40%
- SINAR Ob ([3]; 17.5 g/ha): 70% and 80%
- SINAR Ob ([3]; 35 g/ha): 80% and 85%
- SINAR Ob ([3]; 70 g/ha): 85%
- BROTE Ob ([4]; 35 g/ha, Table 8): 0.0%
- BROTE Ob ([4]; 35 g/ha, Table 9): 0%
- BROTE Ob ([4]; 35 g/ha, Table 10): 0%
- BROTE Ob ([4]; 70 g/ha, Table 8): 0.0%
- BROTE Ob ([4]; 70 g/ha, Table 9): 0%
- BROTE Ob ([4]; 70 g/ha, Table 10): 0%
- BROTE Ob ([4]; 140 g/ha, Table 8): 13%
- BROTE Ob ([4]; 140 g/ha, Table 9): 13%
- BROTE Ob ([4]; 140 g/ha, Table 10): 13%
- POAAN Ob ([5]; 35 g/ha, Table 9): 0%
- POAAN Ob ([5]; 35 g/ha, Table 10): 0%
- POAAN Ob ([5]; 70 g/ha, Table 9): 3%
- POAAN Ob ([5]; 70 g/ha, Table 10): 3%
- POAAN Ob ([5]; 140 g/ha, Table 9): 3%
- POAAN Ob ([5]; 140 g/ha, Table 10): 3%

Structure (SMILES): COc1c(Cl)ccc(-c2cc(N)c(Cl)c(C(=O)O)n2)c1F [Compound A TEA, 4-amino-3-chloro-6-(4-chloro-2-fluoro-3-methoxyphenyl)pyridine-2-carboxylic acid]
- POLPE Ob ([1]; 8.75 g/ha alone): 30%
- POLPE Ob ([1]; 17.5 g/ha alone): 41%
- POLPE Ob ([1]; 35 g/ha alone): 68%
- LOLMU ([2]; 35 g/ha): 0%
- LOLMU Ob ([2]; 35 g/ha, Table 14): 0%
- LOLMU Ob ([2]; 35 g/ha, Table 17): 0%
- LOLMU ([2]; 70 g/ha): 0%
- LOLMU Ob ([2]; 70 g/ha, Table 14): 3%
- LOLMU Ob ([2]; 70 g/ha, Table 17): 0%
- LOLMU ([2]; 140 g/ha): 0%
- LOLMU Ob ([2]; 140 g/ha, Table 14): 3%
- LOLMU Ob ([2]; 140 g/ha, Table 17): 5%
- SINAR Ob ([3]; 8.75 g/ha): 35%
- SINAR Ob ([3]; 17.5 g/ha): 60%
- SINAR Ob ([3]; 35 g/ha): 65%
- SINAR Ob ([3]; 70 g/ha): 70%
- KCHSC Ob ([6]; 8.75 g/ha): 35%
- KCHSC Ob ([6]; 8.75 g/ha alone): 65%
- KCHSC Ob ([6]; 17.5 g/ha): 60%
- KCHSC Ob ([6]; 17.5 g/ha alone): 77%
- KCHSC Ob ([6]; 35 g/ha): 65%
- KCHSC Ob ([6]; 35 g/ha alone): 92%
- KCHSC Ob ([6]; 70 g/ha): 70%
- KCHSC Ob ([6]; 70 g/ha alone): 99%
- BROTE Ob ([4]; 35 g/ha, Table 15): 0%
- BROTE Ob ([4]; 35 g/ha, Table 16): 0%
- BROTE Ob ([4]; 35 g/ha, Table 18): 0%
- BROTE Ob ([4]; 70 g/ha, Table 15): 0%
- BROTE Ob ([4]; 70 g/ha, Table 16): 0%
- BROTE Ob ([4]; 70 g/ha, Table 18): 3%
- BROTE Ob ([4]; 140 g/ha, Table 15): 0%
- BROTE Ob ([4]; 140 g/ha, Table 16): 0%
- BROTE Ob ([4]; 140 g/ha, Table 18): 3%
- POAAN Ob ([5]; 35 g/ha, Table 16): 0%
- POAAN Ob ([5]; 35 g/ha, Table 17): 0%
- POAAN Ob ([5]; 70 g/ha, Table 16): 0%
- POAAN Ob ([5]; 70 g/ha, Table 17): 0%
- POAAN Ob ([5]; 140 g/ha, Table 16): 0%
- POAAN Ob ([5]; 140 g/ha, Table 17): 0%

Structure (SMILES): O=C(O)c1c(Cl)ccc2cc(Cl)cnc12 [Quinclorac]
- KCHSC Ob ([6]; 140 g/ha alone): 0%
